This is an account of results in US11560400B2, “Salts of diphosphate phosphoramidate of nucleosides as anticancer compounds” (NuCana plc, priority 2017, dated 2023).

One data set relates to Mia-Pa-Ca-2. The data set is described as follows: CellTiterGlo cell viability assay, Mia-Pa-Ca-2. Conditions: Mia-Pa-Ca-2, 72 h. The class given is cell-based. In short, it runs like this: (§1)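 Duplicate wells received test compound across nine 3.16-fold steps (198 μM to 19.8 nM final) for about 3 days under standard culture. Viability was read by CTG luminescence, and absolute EC50 plus inhibition at highest dose derived.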

For the next data set, the system named is HT29. The data set is described as follows: CellTiterGlo cell viability assay, HT29. The class given is cell-based. The following applies: HT29, 72 h; for EC50: read-out: Ab EC50; for inhibition at 198 µM: read-out: Top Inhibit. The method in brief:
as §1
For orientation: ATP-based viability assays read luminescence as a measure of living cells.

The next data set deals with MCF-7. The data set can be described thus: CellTiterGlo cell viability assay, MCF-7. It counts as cell-based. The following applies: MCF-7, 72 h; for EC50: read-out: Ab EC50; for inhibition at 198 µM: read-out: Top Inhibit. The method in brief:
as §1

The test system of another data set is Human hepatocytes. The following applies: pooled cryopreserved hepatocytes, 1 μM, 0 and 120 min, 37° C.
Another data set deals with OVCAR 3. The data set can be described thus: CellTiterGlo cell viability assay, OVCAR 3. It counts as cell-based. The following applies: Homo sapiens; for EC50: OVCAR 3, 72 h, Table 3 classes, read-out: Ab EC50. In short, it runs like this:
as §1

The next data set concerns CCRF-CEM. The data set is described as follows: CellTiterGlo cell viability assay, CCRF-CEM. It counts as cell-based. Conditions: Homo sapiens, 72 h; for EC50: Table 3 classes, read-out: Ab EC50; for inhibition at 198 µM: percentage inhibition at the highest concentration tested, read-out: Top Inh. The method in brief:
as §1

The test system of the next data set is MOLT-4. The data set can be described thus: CellTiterGlo cell viability assay, MOLT-4. It counts as cell-based. The following applies: Homo sapiens, MOLT-4, 72 h; for inhibition at 198 µM: percentage inhibition at the highest concentration tested, read-out: Top Inh; for EC50: Table 3 classes, read-out: Ab EC50. In short, it runs like this: as §1
A further data set has as its system K562. The data set can be described thus: CellTiterGlo cell viability assay, K562. The class given is cell-based. Conditions: Homo sapiens, K562, 72 h; for inhibition at 198 µM: percentage inhibition at the highest concentration tested, read-out: Top Inh; for EC50: Table 3 classes, read-out: Ab EC50. The method in brief: as §1
The subject of the next data set is HL-60. The data set is described as follows: CellTiterGlo cell viability assay, HL-60. It counts as cell-based. Conditions: Homo sapiens, HL-60, 72 h; for EC50: Table 3 classes, read-out: Ab EC50; for inhibition at 198 µM: percentage inhibition at the highest concentration tested, read-out: Top Inh. The method in brief: as §1
In another data set the test system is RL. The data set is described as follows: CellTiterGlo cell viability assay, RL. It counts as cell-based. Conditions: Homo sapiens, 72 h; for EC50: Table 3 classes, read-out: Ab EC50; for inhibition at 198 µM: percentage inhibition at the highest concentration tested, read-out: Top Inh. The method in brief: as §1
A further data set has as its system RPMI-8226. The data set can be described thus: CellTiterGlo cell viability assay, RPMI-8226. The class given is cell-based, Human. Conditions: Homo sapiens, RPMI-8226, 72 h; for EC50: Table 3 classes, read-out: Ab EC50; for inhibition at 198 µM: percentage inhibition at the highest concentration tested, read-out: Top Inh. In short, it runs like this:
as §1

Another data set deals with KG1a cells. The data set is described as follows: In vitro cytotoxicity, Annexin V/propidium iodide assay in KG1a cells. The class given is cell-based. The following applies: for change of potency (mean LD50) under hypoxic versus normoxic conditions: 5% oxygen; for Hypoxia Mean LD50 / Mean LD50 (Normoxia Mean LD50): 48 h; for Hypoxia Mean LD50: hypoxic (5% O2); for Mean LD50 (Normoxia Mean LD50): normoxic (20% oxygen); for mean LD50: normoxic; for Ratio Normoxia/Hypoxia: ratio of mean LD50 values. The procedure:
The acute myeloid leukaemia (AML) KG1a cell line was maintained in RPMI medium (Invitrogen, Paisley, UK) supplemented with 100 units/mL penicillin, 100 μg/mL streptomycin and 20% foetal calf serum. Cells were subsequently aliquoted (10^5 cells/100 μL) into 96-well plates and were incubated at 37° C. in a humidified normoxic (20% oxygen) or hypoxic (1% or 5% oxygen) atmosphere for 48 h in the presence of clofarabine, or clofarabine diphosphate phosphoramidates of the invention (1×10^−10M-1×10^−6M). In addition, control cultures were carried out to which no drug was added. Cells were subsequently harvested by centrifugation and were analysed by flow cytometry using the Annexin V assay.
Cultured cells were harvested by centrifugation and then resuspended in 195 μL of calcium-rich buffer. Subsequently, 5 μL of Annexin V (Caltag Medsystems, Botolph Claydon, UK) was added to the cell suspension and cells were incubated in the dark for 10 mins prior to washing. Cells were finally resuspended in 190 μL of calcium-rich buffer together with 10 μL of propidium iodide. Apoptosis was assessed by dual-colour immunofluorescent flow cytometry as described previously. Subsequently LD50 values (the dose required to kill 50% of the cells in a culture) were calculated for each nucleoside analogue and diphosphate phosphoramidate.
The data obtained in these experiments were evaluated using one-way ANOVA. All data was confirmed as Gaussian or a Gaussian approximation using the omnibus K2 test. LD50 values were calculated from the non-linear regression and line of best-fit analysis of the sigmoidal dose-response curves. All statistical analyses were performed using Graphpad Prism 6.0 software (Graphpad Software Inc., San Diego, Calif.).
The in vitro drug sensitivity of KG1a cells was assessed using the Annexin V/propidium iodide assay.

Data set [1] has as its system Lin−/CD34+/CD38−/CD123+ LSCs of KG1a cells. The data set can be described thus: Leukaemic stem cell (LSC) targeting in KG1a cells. It counts as cell-based. The following applies: in words. On the procedure:
KG1a cells were cultured for 48 h in the presence of a wide range of concentrations of each nucleoside analogue and their respective diphosphate phosphramidate. Cells were then harvested and labelled with a cocktail of anti-lineage antibodies (PE-cy7), anti-CD34 (FITC), anti-CD38 (PE) and anti-CD123 (PERCP cy5). The sub-population expressing a leukaemic stem cell (LSC) phenotype were subsequently identified and were expressed as a percentage of all viable cells left in the culture. The percentages of stem cells remaining were then plotted on a dose-response graph and the effects of the diphosphate phosphoramidate were compared with the parental nucleosides.

A further data set can be described thus: in vitro. The following applies: human, hepatocytes, pH 7.3.
[2] abbreviates: percentage inhibition at the highest concentration tested.
[3] abbreviates: Homo sapiens, HT-29, 72 h, Table 3 classes.
Setting [4] is: Homo sapiens, HT-29, 72 h, percentage inhibition at the highest concentration tested.
Setting [5] is: Homo sapiens, MCF7, 72 h, Table 3 classes.
Setting [6] is: Homo sapiens, MCF7, 72 h, percentage inhibition at the highest concentration tested.

Values joined by “and” are separate entries in the source; they are usually repeats but may differ in a detail not shown here. Equal values may be shown once. “Also recorded” adds a separate entry of the source. Where a name gives a salt, the structure may show the parent alone. Read-outs that look alike come from different tables or passages of the source.

`Nc1ncnc2c1nc(Cl)n2[C@@H]1O[C@H](CO)[C@@H](O)[C@H]1O` [8-Cl-Adenosine, reference compound]: the EC50 was 420 nM in the data set with Mia-Pa-Ca-2 (absolute EC50, read-out: Ab EC50); 1960 nM with HT29 (absolute EC50, numeric values); 1830 nM with MCF-7 (absolute EC50, numeric values). Also, the “Top Inhibit” value in the data set on Mia-Pa-Ca-2 (setting [2]) was determined as 85%; with HT29 (setting [2]), 73%; in the data set with MCF-7 (setting [2]), 85.7%. In addition, the “Human hepatocytes Mean half-life” value with Human hepatocytes was more than 2 h.

Turning to `C[C@H](NP(=O)(Oc1ccccc1)OP(=O)(O)OC[C@H]1O[C@@H](n2cnc3c(N)nc(Cl)nc32)[C@H](F)C1O)C(=O)OCc1ccccc1` (stereo partly drawn) [Example 1, 2-Chloro-9-(2′-Deoxy-2′-fluoro-β-D-arabinofuranosyl)adenine-5′-O-[phenyl(benzoxy-L-alaninyl)] Diphosphate Triethylammonium Salt], the EC50 in the data set with HT29 (setting [3]) is 200 to 2000 nM; in the data set with OVCAR 3 it was more than 10000 nM; in the data set with MCF-7 (setting [5]), 200 to 2000 nM; with CCRF-CEM, less than 200 nM; in the data set on MOLT-4 it was less than 200 nM; with K562 it was more than 10000 nM. Also, the EC50 with HL-60 was less than 200 nM; in the data set with RL, 200 to 2000 nM; in the data set with RPMI-8226, 5000 to 10000 nM. In addition, the inhibition at 198 µM is 66% in the data set on HT29 (setting [4]); 59% in the data set with MCF-7 (setting [6]); 98.7% in the data set on CCRF-CEM; 82.7% in the data set on MOLT-4; 24% with K562; 97% in the data set with HL-60. The inhibition at 198 µM in the data set with RL was 70%; in the data set with RPMI-8226, 91%. Also, in the data set with KG1a cells (in words), the “change of potency (mean LD50) under hypoxic versus normoxic conditions” value is given as “no significant difference in mean LD50 values; also recorded: reduction in potency was not observed”. The “Hypoxia Mean LD50” value in the data set with KG1a cells was found to be 16.3 nM. Also, the “Mean LD50 (Normoxia Mean LD50)” value in the data set on KG1a cells came out at 13.7 nM. The “potency in KG1a cells (dose-response curves)” value with KG1a cells (in words) is “highest potency; also recorded: slightly more potent”. The “mean LD50” value with KG1a cells turned out to be 13.7 nM. Also, the “Ratio Normoxia/Hypoxia” value with KG1a cells was found to be 84.0. The “selectivity against LSCs” value in data set [1] is “trend towards increased selectivity”. The compound also had a half-life in “in vitro” of 0.333 to 1.67 h.

For `CCOC(=O)[C@H](C)NP(=O)(Oc1ccccc1)OP(=O)(O)OC[C@H]1O[C@@H](n2cnc3c(N)nc(Cl)nc32)[C@H](F)C1O` (stereo partly drawn) [Example 2, 2-Chloro-9-(2′-Deoxy-2′-fluoro-β-D-arabinofuranosyl)adenine-5′-O-[phenyl(ethoxy-L-alaninyl)] Diphosphate Triethylammonium Salt], the concentration for a half-maximal effect (EC50) with HT29 (setting [3]) is 200 to 2000 nM; in the data set with OVCAR 3, more than 10000 nM; in the data set with MCF-7 (setting [5]) it was 200 to 2000 nM; with CCRF-CEM, less than 200 nM; with MOLT-4, less than 200 nM; with K562, more than 10000 nM. In addition, the EC50 was less than 200 nM with HL-60, 200 to 2000 nM in the data set on RL and 5000 to 10000 nM in the data set with RPMI-8226. The inhibition at 198 µM with HT29 (setting [4]) came out at 62%; in the data set on OVCAR 3 (OVCAR-3, 72 h, percentage inhibition at the highest concentration tested, read-out: Top Inhibit) it was 48%; with MCF-7 (setting [6]), 54%; in the data set with CCRF-CEM, 98.7%; in the data set with MOLT-4 it was 98%; with K562 it was 29%. Besides, the values for the inhibition at 198 µM in the data set with HL-60, in the data set with RL and in the data set on RPMI-8226 were 98%, 65% and 92%, respectively. Also, the “change of potency (mean LD50) under hypoxic versus normoxic conditions” value in the data set with KG1a cells (in words) is given as “reduction in potency was not observed”. For the same compound, the “Hypoxia Mean LD50” value in the data set on KG1a cells was found to be 95.0 nM. For the same compound, the “Mean LD50 (Normoxia Mean LD50)” value in the data set on KG1a cells is on record as 71.0 nM. Besides, in the data set with KG1a cells, the “mean LD50” value is 43.8 nM and 71 nM. Besides, in the data set on KG1a cells, the “Ratio Normoxia/Hypoxia” value stood at 74.7. Moreover, in “in vitro”, the half-life was 0.333 to 1.67 h.

One may read the EC50 as the concentration at which the effect is half-maximal. Usually half-life stands for the time needed for the level to fall by half in the phase considered. Lower therefore signals rapid decline.
